# Assay results taken from ChEMBL document CHEMBL1137573, “Cyclooxygenase-2 inhibitors. 1,5-diarylpyrrol-3-acetic esters with enhanced inhibitory activity toward cyclooxygenase-2 and improved cyclooxygenase-2/cyclooxygenase-1 selectivity” (J Med Chem, 2007).
# Experiments:
# [1] = target: T1, Prostaglandin G/H synthase 2 (Mus musculus, UniProt Q05769)
# T1 sequence (Q05769 whole entry): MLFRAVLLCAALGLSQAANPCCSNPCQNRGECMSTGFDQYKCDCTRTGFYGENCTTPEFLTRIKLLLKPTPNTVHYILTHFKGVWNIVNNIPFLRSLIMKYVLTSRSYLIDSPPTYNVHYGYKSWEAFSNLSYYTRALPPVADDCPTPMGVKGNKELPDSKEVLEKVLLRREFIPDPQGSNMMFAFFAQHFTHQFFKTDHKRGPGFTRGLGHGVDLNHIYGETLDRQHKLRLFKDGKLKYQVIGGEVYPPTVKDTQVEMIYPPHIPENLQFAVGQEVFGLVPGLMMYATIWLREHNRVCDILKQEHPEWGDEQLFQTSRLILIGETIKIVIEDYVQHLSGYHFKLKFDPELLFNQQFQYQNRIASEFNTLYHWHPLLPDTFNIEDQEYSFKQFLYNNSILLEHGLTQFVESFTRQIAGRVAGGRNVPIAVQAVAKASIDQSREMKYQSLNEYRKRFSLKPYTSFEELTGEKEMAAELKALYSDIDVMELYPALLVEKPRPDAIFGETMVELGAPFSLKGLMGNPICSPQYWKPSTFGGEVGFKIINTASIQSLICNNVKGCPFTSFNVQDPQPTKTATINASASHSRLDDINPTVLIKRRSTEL
# Description: Inhibition of COX2 in LPS-stimulated J774 cells assessed as inhibition of PGE2 levels by radioimmunoassay
# [2] = target: T2, Prostaglandin G/H synthase 1 (Mus musculus, UniProt P22437); experiment: Inhibition of COX1 in mouse J774 cells assessed as arachidonic acid-induced PGE2 levels by radio immunoassay; format: cell-based
# T2 sequence (P22437 whole entry): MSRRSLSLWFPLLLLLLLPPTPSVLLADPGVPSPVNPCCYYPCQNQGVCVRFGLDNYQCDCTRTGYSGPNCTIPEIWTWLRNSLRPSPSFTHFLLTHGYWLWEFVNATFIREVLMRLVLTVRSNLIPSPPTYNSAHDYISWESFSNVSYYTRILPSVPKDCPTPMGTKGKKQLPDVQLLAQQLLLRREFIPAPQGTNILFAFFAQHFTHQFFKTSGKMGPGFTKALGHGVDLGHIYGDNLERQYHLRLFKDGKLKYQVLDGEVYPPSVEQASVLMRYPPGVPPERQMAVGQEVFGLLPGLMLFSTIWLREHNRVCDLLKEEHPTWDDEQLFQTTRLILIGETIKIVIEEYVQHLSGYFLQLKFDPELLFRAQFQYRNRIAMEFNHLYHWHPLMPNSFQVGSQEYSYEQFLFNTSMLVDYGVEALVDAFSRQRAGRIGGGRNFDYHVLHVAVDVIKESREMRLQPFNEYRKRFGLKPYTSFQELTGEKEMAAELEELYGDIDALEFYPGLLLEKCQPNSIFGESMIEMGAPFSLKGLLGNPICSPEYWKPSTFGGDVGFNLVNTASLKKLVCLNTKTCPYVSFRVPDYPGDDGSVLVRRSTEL
# Mus musculus [3] = organism: Mus musculus; experiment: Selectivity ratio of IC50 for mouse COX1 to IC50 for mouse COX2
# Rattus norvegicus [4] = experiment: Antiinflammatory activity against carrageenan-induced hyperalgesia in rat assessed as paw pressure in rat at 20 mg/kg, po after 120 mins; format: functional
# [5] = target: T3, Prostaglandin G/H synthase 2 (Homo sapiens, UniProt P35354); experiment: Inhibition of COX2 in LPS-induced monocyte assessed as PGE2 production in human whole blood
# T3 sequence (P35354 whole entry): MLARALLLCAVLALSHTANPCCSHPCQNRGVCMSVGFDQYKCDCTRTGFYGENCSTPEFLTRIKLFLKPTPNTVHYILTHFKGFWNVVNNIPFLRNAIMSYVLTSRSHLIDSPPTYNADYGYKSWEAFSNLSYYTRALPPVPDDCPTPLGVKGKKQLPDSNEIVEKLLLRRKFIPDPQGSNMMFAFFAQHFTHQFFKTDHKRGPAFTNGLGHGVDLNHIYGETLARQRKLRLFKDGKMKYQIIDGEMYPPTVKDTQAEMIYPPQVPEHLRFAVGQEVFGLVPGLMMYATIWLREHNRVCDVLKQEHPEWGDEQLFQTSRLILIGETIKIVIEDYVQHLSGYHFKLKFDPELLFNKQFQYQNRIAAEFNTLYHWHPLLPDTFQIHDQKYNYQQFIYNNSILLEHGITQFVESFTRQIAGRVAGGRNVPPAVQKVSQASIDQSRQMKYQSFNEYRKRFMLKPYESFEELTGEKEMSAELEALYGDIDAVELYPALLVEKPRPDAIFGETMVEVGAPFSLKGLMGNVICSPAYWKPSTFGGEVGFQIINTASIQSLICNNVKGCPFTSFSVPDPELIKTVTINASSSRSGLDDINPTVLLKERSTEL
# Rattus norvegicus [6] = experiment: Antiinflammatory activity against carrageenan-induced hyperalgesia in rat assessed as paw pressure in rat at 20 mg/kg, po after 60 mins; format: functional
# [7] = target: Prostaglandin G/H synthase 1 (Homo sapiens, UniProt P23219); experiment: Inhibition of COX1 in human whole blood assessed as TXB2 production; format: tissue-based
# Prostaglandin G/H synthase 1 (Homo sapiens, UniProt P23219), sequence (P23219 whole entry): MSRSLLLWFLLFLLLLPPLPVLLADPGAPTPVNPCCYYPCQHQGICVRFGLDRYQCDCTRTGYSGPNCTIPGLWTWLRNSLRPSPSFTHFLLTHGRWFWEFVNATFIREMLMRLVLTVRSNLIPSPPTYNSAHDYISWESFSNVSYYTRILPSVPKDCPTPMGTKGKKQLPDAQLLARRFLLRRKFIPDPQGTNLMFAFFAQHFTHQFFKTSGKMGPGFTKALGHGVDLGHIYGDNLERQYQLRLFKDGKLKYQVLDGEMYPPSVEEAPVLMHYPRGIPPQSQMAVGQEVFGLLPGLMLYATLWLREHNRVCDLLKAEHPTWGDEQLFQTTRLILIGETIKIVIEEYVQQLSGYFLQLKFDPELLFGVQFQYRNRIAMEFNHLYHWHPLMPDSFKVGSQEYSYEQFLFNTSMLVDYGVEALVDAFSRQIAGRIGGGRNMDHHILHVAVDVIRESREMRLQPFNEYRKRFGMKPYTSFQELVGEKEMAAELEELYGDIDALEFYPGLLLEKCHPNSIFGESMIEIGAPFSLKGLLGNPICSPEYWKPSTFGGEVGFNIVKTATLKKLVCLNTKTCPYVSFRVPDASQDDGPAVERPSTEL
# Mus musculus [8] = experiment: Analgesic activity against acetic acid induced abdominal constriction in Swiss Albino mouse assessed as number of writhings at 10 mg/kg, po after 10 mins; format: functional, Abdomen
# Mus musculus [9] = experiment: Analgesic activity against acetic acid induced abdominal constriction in Swiss Albino mouse assessed as number of writhings at 20 mg/kg, po after 10 mins; format: functional, Abdomen
# Rattus norvegicus [10] = experiment: Antiinflammatory activity against carrageenan-induced hyperalgesia in rat assessed as paw pressure in rat at 20 mg/kg, po after 30 mins; format: functional
# Rattus norvegicus [11] = experiment: Antiinflammatory activity against carrageenan-induced paw edema in rat at 20 mg/kg, po; format: functional
Structure (SMILES),IC50 [1],IC50 [2],Ratio IC50 (Mus musculus [3]),other results
CCOC(=O)Cc1cc(-c2ccc(S(C)(=O)=O)cc2)n(-c2ccc(OC)cc2)c1C,26 nM,> 100 µM,> 4000,–
CCOC(=O)Cc1cc(-c2ccc(S(C)(=O)=O)cc2)n(-c2ccc(F)cc2)c1C,10 nM,> 100 µM,> 10000,–
CCOC(=O)Cc1cc(-c2ccccc2)n(-c2ccc(S(C)(=O)=O)cc2)c1C,–,> 100 µM,–,–
CCOC(=O)C(=O)c1cc(-c2ccc(C(F)(F)F)cc2)n(-c2ccc(S(C)(=O)=O)cc2)c1C,–,> 100 µM,–,–
CCOC(=O)C(=O)c1cc(-c2ccc(F)c(F)c2)n(-c2ccc(S(C)(=O)=O)cc2)c1C,–,> 100 µM,–,–
CCOC(=O)C(=O)c1cc(-c2ccc(S(C)(=O)=O)cc2)n(-c2cccc(F)c2)c1C,900 nM,> 100 µM,> 100,–
CCOC(=O)Cc1cc(-c2ccc(C)cc2)n(-c2ccc(S(C)(=O)=O)cc2)c1C,1960 nM,> 100 µM,> 50,–
CCOC(=O)Cc1cc(-c2ccc(F)cc2)n(-c2ccc(S(C)(=O)=O)cc2)c1C,400 nM,> 100 µM,> 250,–
CCOC(=O)Cc1cc(-c2ccc(OC)cc2)n(-c2ccc(S(C)(=O)=O)cc2)c1C,550 nM,> 100 µM,> 200,–
CCOC(=O)C(=O)c1cc(-c2ccc(F)cc2)n(-c2ccc(S(C)(=O)=O)cc2)c1C,–,> 100 µM,–,–
CCOC(=O)Cc1cc(-c2ccc(S(C)(=O)=O)cc2)n(-c2ccc(F)c(F)c2)c1C,–,> 100 µM,> 5000,–
CCOC(=O)C(=O)c1cc(-c2ccc(C)cc2)n(-c2ccc(S(C)(=O)=O)cc2)c1C,–,> 100 µM,–,–
CCOC(=O)C(=O)c1cc(-c2ccc(S(C)(=O)=O)cc2)n(-c2ccc(F)c(F)c2)c1C,8400 nM,> 100 µM,> 12,–
CCOC(=O)C(=O)c1cc(-c2ccc(S(C)(=O)=O)cc2)n(-c2ccc(F)cc2)c1C,11000 nM,> 100 µM,> 9,–
CCOC(=O)Cc1cc(-c2ccc(S(C)(=O)=O)cc2)n(-c2cccc(F)c2)c1C,–,> 100 µM,> 10000,Activity (Rattus norvegicus [4]): 43.4 g; IC50 [5]: 2100 nM; Activity (Rattus norvegicus [6]): 49.8 g; IC50 [7]: 20.4 µM; Activity (Mus musculus [8]): 28.9; Activity (Mus musculus [9]): 15.7; Activity (Rattus norvegicus [10]): 55.2 g; Activity (Rattus norvegicus [11]): 95.5%
CCOC(=O)C(=O)c1cc(-c2ccc(S(C)(=O)=O)cc2)n(-c2ccc(OC)cc2)c1C,940 nM,> 100 µM,> 100,–
CCOC(=O)Cc1cc(-c2ccc(C(F)(F)F)cc2)n(-c2ccc(S(C)(=O)=O)cc2)c1C,–,> 100 µM,–,–
CCOC(=O)C(=O)c1cc(-c2ccc(OC)cc2)n(-c2ccc(S(C)(=O)=O)cc2)c1C,–,> 100 µM,–,–
CCOC(=O)Cc1cc(-c2ccc(F)c(F)c2)n(-c2ccc(S(C)(=O)=O)cc2)c1C,5400 nM,> 100 µM,> 19,–
CCOC(=O)C(=O)c1cc(-c2ccccc2)n(-c2ccc(S(C)(=O)=O)cc2)c1C,–,> 100 µM,–,–
